Source: ChEMBL document CHEMBL1138541, “Design, synthesis, and evaluation of benzophenone derivatives as novel acetylcholinesterase inhibitors” (Eur J Med Chem, 2009)

What was measured:
Acetylcholinesterase = Acetylcholinesterase (Homo sapiens, UniProt P22303); test: Inhibition of human recombinant AChE by Ellman's method
Cholinesterase = Cholinesterase (Homo sapiens, UniProt P06276); test: Inhibition of human serum BChE by Ellman's method
Sequence of Cholinesterase (P06276 whole entry): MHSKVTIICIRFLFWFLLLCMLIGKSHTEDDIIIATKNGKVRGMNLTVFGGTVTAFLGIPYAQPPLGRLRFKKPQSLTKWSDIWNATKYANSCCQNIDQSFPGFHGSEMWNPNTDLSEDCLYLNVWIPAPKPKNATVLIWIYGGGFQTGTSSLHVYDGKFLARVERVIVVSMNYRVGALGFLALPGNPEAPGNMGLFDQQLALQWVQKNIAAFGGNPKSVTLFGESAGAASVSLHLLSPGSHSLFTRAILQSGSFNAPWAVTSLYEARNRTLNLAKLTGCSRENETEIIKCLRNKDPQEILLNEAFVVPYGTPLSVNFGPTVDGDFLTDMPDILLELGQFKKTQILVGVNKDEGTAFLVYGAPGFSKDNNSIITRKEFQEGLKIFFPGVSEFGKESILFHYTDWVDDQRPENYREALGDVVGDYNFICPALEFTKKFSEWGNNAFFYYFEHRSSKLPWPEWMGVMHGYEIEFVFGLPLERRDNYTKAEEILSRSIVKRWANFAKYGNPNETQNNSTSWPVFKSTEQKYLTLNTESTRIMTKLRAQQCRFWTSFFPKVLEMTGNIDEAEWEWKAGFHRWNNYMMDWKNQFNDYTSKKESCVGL

Sequence of Acetylcholinesterase (P22303 whole entry): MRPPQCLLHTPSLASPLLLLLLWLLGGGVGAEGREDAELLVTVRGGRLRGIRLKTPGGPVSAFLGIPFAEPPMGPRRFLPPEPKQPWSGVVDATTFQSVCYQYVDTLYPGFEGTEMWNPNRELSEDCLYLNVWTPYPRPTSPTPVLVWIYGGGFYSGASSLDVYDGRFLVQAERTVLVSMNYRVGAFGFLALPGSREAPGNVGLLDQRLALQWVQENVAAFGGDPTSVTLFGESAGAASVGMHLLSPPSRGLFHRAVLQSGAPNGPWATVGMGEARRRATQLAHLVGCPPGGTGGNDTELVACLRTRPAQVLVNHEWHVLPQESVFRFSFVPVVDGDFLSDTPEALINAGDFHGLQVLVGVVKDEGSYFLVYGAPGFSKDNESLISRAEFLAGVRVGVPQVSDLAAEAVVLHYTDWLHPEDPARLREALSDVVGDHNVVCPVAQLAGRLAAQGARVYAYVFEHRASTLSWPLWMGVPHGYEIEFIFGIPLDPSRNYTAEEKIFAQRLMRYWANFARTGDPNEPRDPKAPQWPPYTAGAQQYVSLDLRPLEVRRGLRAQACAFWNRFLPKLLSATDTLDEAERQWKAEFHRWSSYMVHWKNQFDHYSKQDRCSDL

SMILES	IC50 (Acetylcholinesterase)	IC50 (Cholinesterase)
CCN(Cc1ccccc1)Cc1ccc(C(=O)c2ccc(OC)c(OC)c2)cc1	0.57 µM	71.5 µM
COc1ccc(C(=O)c2ccc(CN(C)Cc3cccc(C)c3)cc2)cc1OC	1.65 µM	125 µM
COc1ccc(C(=O)c2ccc(/C=C/CN(C)Cc3ccccc3)cc2)cc1OC	2.1 µM	44 µM
COc1ccc(C(=O)c2ccc(CN(C)Cc3ccccc3)cc2)cc1F	1.57 µM	> 100 µM
COc1ccc(C(=O)c2ccc(CN(C)Cc3cccc([N+](=O)[O-])c3)cc2)cc1OC	4.27 µM	> 100 µM
COc1ccc(C(=O)c2ccc(CN(C)Cc3ccccc3)cc2)cc1OC	0.46 µM	60.7 µM
COc1ccc(C(=O)c2ccc(CN3CCOCC3)cc2)cc1OC	345 µM	
COc1ccc(C(=O)c2ccc(CN(C)CCN(C)C)cc2)cc1OC	2.37 µM	88.8 µM
C#CCN(C)Cc1ccc(C(=O)c2ccc(OC)c(OC)c2)cc1	27.2 µM	
COc1ccc(C(=O)c2ccc(CN3CCc4ccccc4C3)cc2)cc1OC	54 µM	
CN(Cc1ccccc1)Cc1ccc(C(=O)c2ccc3ccccc3c2)cc1	19.6 µM	
COc1ccc(C(=O)c2ccc(CN(CCN(C)C)Cc3ccccc3)cc2)cc1OC	8.64 µM	33.2 µM
COc1ccc(C(=O)c2ccc(CN(CCO)Cc3ccccc3)cc2)cc1OC	1.41 µM	172 µM
COc1ccccc1CN(C)Cc1ccc(C(=O)c2ccc(OC)c(OC)c2)cc1	3.71 µM	16.2 µM
COc1ccc(C(=O)c2ccc(CN(C)Cc3ccccc3)cc2)cc1	1.82 µM	> 100 µM
CCN(CC)Cc1ccc(C(=O)c2ccc(OC)c(OC)c2)cc1	36.8 µM	
